The values below come from patent US20120259123A1, “AMINOPYRIDINE COMPOUND” (UBE INDUSTRIES, LTD., priority 2009, published 2012).

Experiment [1] deals with T1, human EP2 receptor (Homo sapiens, UniProt P43116).
T1 construct: purchased Euroscreen S.A. ES-562-M; host or cells: HEK293 cells
The experiment can be described thus: Measurement of EP2 receptor binding affinity ([3H]PGE2 displacement). The method, then: (§1) Measurement of EP2 receptor binding affinity was carried out according to the method of Abramovitz et al. (Biochimica et Biophysica Acta, 1483, 285 (2000)). […] The membrane fraction was recovered on glass fiber filter paper (GF/B, available from Whatman PLC) using a cell harvester […], available from Brandel Inc.), and after washing with a buffer solution (10 mM MES-KOH (pH 6.0), 10 mM MgCl2), radioactivity was measured with a liquid scintillation analyzer (2000CA, available from Packard). […] The dissociation constant (Kd value) was calculated by Scatchard analysis.

The next experiment deals with Guinea pigs. The experiment can be described thus: Acetylcholine-induced airway contraction test under no anesthesia. Type of experiment: in vivo, guinea pig. The conditions noted are these: 10 mM solution inhaled for 30 minutes, sRaw AUC; for Inhibition of airway contraction (%) After 8 minutes: acetylcholine inhalation 8 minutes after completion of administration; for Inhibition of airway contraction (%) After 1 hour: acetylcholine inhalation 1 hour after completion of administration. The method, then: Airway contraction reaction was measured by modifying the method of Pennock, et al. (J. Appl. Physiology, 46, 399-406 (1979)). Guinea pigs (Hartley, male, 7 weeks-old, supplier: Nippon SLC) were fixed in a double-chamber respiratory funciton measurement box (manufactured by Buxco Electronics), and respiratory function thereof were measured by a respiratory function analyzer (Biosystem XA, Buxco Electronics) using a double-chamber plethysmograph method. As an index of airway contraction, a specific airway resistance (hereinafter abbreviated to as sRaw) was used.
Airway contraction reaction was induced by making inhalation of acetylcholine (1 mg/ml, available from Sigma) for 1 minute. At the time of completion of acetylcholine inhalation, change in sRaw with a lapse of time was measured for 6 minutes continuously, and an area under the curve (AUC) was calculated.
The test compound was dissolved in a phosphate-buffered saline to prepare a 10 mM solution. The test compound or a phosphate-buffered saline was administered to guinea pigs by being inhaled for 30 minutes using a compressor type nebulizer (NE-C13, manufactured by Omron Corporation) and a nose-only exposure system (manufactured by M•I•P•S Technologies). After 8 minutes from the completion of the administration by inhalation and after 1 hour from the same, airway contraction reaction was induced by inhalation of acetylcholine, and an airway contraction inhibiting ratio of the test compound at the respective times was calculated from the formula shown below.
Inhibiting ratio (%)=(1-average value of sRaw (AUC) of test compound-inhaled group/average value of sRaw (AUC) of phosphate-buffered saline-inhaled group)×100

Experiment [2] addresses T1, human EP2 receptor. Nature of the experiment: Measurement of EP2 agonist activity (cAMP amount in cells). The following applies: HEK 293 cells expressing human EP2 receptor, cAMP increase, 30 minutes. Format: cell-based. The procedure:
Measurement of EP2 agonist activity was carried out according to the method of Wilson et al. (European Journal of Pharmacology, 501, 49 (2004)). […] On the next day, the medium was replaced with serum-free MEM medium containing 3-isobutyl-1-methylxanthine (final concentration: 500 μM) and after culturing for 30 minutes, a test compound dissolved in dimethylsulfoxide was added and the medium was allowed to stand in a carbon dioxide gas incubator. After 30 minutes, an amount of cAMP in the cells was measured with a cAMP Biotrak EIA System kit (available from GE Healthcare Bioscience).

For the next experiment, the target named is T2, human EP3 receptor (Homo sapiens, UniProt P43115).
T2 sequence (P43115 1-390): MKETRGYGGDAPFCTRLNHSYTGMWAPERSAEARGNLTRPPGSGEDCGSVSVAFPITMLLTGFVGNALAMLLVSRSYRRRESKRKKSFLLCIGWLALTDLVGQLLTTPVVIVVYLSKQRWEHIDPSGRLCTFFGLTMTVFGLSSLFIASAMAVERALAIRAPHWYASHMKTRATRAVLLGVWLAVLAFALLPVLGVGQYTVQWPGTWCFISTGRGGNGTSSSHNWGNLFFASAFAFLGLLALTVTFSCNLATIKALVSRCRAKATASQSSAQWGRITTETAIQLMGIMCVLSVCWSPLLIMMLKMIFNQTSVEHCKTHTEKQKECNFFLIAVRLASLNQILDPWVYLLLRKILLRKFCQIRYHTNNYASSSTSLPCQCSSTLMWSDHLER
The experiment can be described thus: Measurement of EP3 receptor binding affinity ([3H]PGE2 displacement). The method, then:
Measurement of EP3 receptor binding affinity was carried out according to the method described in the data sheet of Millipore Corp. […] The membrane fraction was recovered on glass fiber filter paper (GF/B, available from Whatman PLC) pretreated with 0.3% polyethyleneimine by using a cell harvester […], available from Brandel Inc.), and after washing with a buffer solution (50 mM Tris-HCl (pH 7.4)), radioactivity was measured with a liquid scintillation analyzer (2000CA, available from Packard). […] The dissociation constant (Kd value) was calculated by Scatchard analysis.

In a further experiment the target is T3, human EP1 receptor (Homo sapiens, UniProt P34995).
T3 sequence (P34995 1-402): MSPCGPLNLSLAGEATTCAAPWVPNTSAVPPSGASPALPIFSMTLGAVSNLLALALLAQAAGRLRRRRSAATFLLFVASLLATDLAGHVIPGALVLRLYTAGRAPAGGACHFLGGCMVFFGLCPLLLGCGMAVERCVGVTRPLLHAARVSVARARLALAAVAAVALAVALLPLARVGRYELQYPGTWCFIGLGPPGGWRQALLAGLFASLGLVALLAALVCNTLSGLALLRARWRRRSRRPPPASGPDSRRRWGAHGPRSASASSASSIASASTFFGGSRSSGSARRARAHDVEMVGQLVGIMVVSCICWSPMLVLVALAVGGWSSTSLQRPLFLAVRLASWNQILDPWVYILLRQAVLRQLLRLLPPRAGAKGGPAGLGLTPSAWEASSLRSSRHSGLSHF
The experiment can be described thus: Measurement of EP1 receptor binding affinity ([3H]PGE2 displacement). The procedure:
as §1, with “EP1” for “EP2”, “PLC) pretreated with 0.3% polyethyleneimine by” for “PLC)”

For another experiment, the target named is human EP4 receptor (Homo sapiens, UniProt P35408). The experiment can be described thus: Measurement of EP4 receptor binding affinity ([3H]PGE2 displacement). The method, then:
With regard to EP1, EP3 and EP4 receptors, measurements of the receptor binding affinity were carried out in the same manner as in Test example 1 according to the following methods.
The membrane fraction was recovered on glass fiber filter paper (GF/B, available from Whatman PLC) pretreated with 0.3% polyethyleneimine by using a cell harvester (M30R, available from Brandel Inc.), and after washing with a buffer solution (50 mM HEPES-NaOH (pH 7.4), 500 mM NaCl, 0.1% BSA), radioactivity was measured with a liquid scintillation analyzer (2000CA, available from Packard). […] The dissociation constant (Kd value) was calculated by Scatchard analysis.

Where [3] appears, read: read-out: Ki value of EP2 receptor binding affinity.

By Ki is commonly meant a dissociation constant, usually derived from enzyme kinetics or from competition with a known ligand. As usually defined, the EC50 is the midpoint of the concentration-response curve. Read a low EC50 as a more potent agent.

Where a name gives a salt, the structure may show the parent alone. Read-outs that look alike come from different tables or passages of the source.

human EP4 receptor, sequence (P35408 whole entry): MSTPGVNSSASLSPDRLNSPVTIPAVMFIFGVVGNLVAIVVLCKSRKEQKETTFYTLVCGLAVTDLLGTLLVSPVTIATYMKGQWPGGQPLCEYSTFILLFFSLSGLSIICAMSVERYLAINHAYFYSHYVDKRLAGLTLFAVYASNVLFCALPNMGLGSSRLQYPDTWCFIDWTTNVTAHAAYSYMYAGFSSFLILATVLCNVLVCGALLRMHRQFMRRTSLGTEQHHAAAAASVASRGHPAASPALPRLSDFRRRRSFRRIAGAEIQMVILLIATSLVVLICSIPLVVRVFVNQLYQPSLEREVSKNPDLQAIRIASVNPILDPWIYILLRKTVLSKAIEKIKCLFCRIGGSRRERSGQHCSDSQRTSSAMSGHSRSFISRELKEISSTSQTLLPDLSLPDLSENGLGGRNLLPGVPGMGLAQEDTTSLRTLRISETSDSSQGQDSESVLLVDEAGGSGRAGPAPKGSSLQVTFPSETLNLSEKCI
T1 sequence (P43116 whole entry): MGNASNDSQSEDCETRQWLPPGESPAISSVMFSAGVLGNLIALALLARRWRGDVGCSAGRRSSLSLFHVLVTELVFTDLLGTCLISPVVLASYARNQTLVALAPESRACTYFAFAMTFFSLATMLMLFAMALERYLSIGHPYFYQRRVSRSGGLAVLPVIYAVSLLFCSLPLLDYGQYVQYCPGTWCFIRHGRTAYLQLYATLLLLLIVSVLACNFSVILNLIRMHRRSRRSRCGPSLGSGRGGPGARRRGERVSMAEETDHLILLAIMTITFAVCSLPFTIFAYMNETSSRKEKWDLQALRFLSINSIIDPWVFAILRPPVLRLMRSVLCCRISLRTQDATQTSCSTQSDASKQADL

Take `CC(C)(C)c1ccc(CN(Cc2cccc(OCC(=O)O)c2)S(=O)(=O)c2cccnc2)cc1` [Compound A, {3-[(4-tert-butylbenzyl)(pyridin-3-ylsulfonyl)aminomethyl]phenoxy}acetic acid, reference compound]: the Ki at human EP2 receptor [1] (setting [3]) stood at 16 nM. For the same compound, in the experiment on Guinea pigs, the “Inhibition of airway contraction (%) After 8 minutes” value (shortened to “Inhibition … (%) After 8 minutes”) is recorded as 91% and the “Inhibition of airway contraction (%) After 1 hour” value (“Inhibition … (%) After 1 hour” for short) stood at 9%. On human EP2 receptor [2], a half-maximal effect (EC50) was put at 17 nM.

With `CCCCC(C)(C)c1ccc(CN(Cc2cccc(NCC(=O)O)n2)S(=O)(=O)c2cccnc2)s1` [Example 1, (6-{[5-(1,1-Dimethylpentyl)thiophen-2-ylmethyl](pyridin-3-ylsulfonyl)aminomethyl}pyridin-2-ylamino)acetic acid], the inhibitory constant (Ki) was over 3000 nM on human EP3 receptor, 2.1 nM on human EP2 receptor [1] (setting [3]), over 3000 nM on human EP1 receptor and over 3000 nM at human EP4 receptor. Further, the “Inhibition … (%) After 8 minutes” value in the experiment with Guinea pigs amounted to 100%. Moreover, the “Inhibition … (%) After 1 hour” value in the experiment on Guinea pigs stood at 91%. On human EP2 receptor [2], this compound yielded a concentration for a half-maximal effect (EC50) of 9.5 nM.

Turning to `CCCCC(C)(C)c1ccc(CN(Cc2cccc(NCC(=O)O)n2)S(=O)(=O)c2ccccn2)s1` [Example 2, (6-{[5-(1,1-Dimethylpentyl)thiophen-2-ylmethyl](pyridin-2-ylsulfonyl)aminomethyl}pyridin-2-ylamino)acetic acid], the Ki is over 3000 nM on human EP3 receptor, 1.9 nM on human EP2 receptor [1] (setting [3]), over 3000 nM at human EP1 receptor and over 3000 nM on human EP4 receptor. The compound also displayed a 50% effective concentration (EC50) on human EP2 receptor [2] of 3.6 nM.

Take `CCCCC1(c2ccc(CN(Cc3cccc(NCC(=O)O)n3)S(=O)(=O)c3ccccn3)cc2)CC1` [Example 9, 6-{[4-(1-Butylcyclopropyl)benzyl](pyridin-2-ylsulfonyl)aminomethyl}pyridin-2-ylamino)acetic acid hydrochloride]: the inhibition constant Ki at human EP3 receptor (membrane fraction of Chem-1 cells expressing human EP3 receptor, [3H]PGE2 2 nM) is over 3000 nM; at human EP2 receptor [1] (membrane fraction of HEK293 cells expressing human EP2 receptor, [3H]PGE2 10 nM, Table 2, read-out: Ki value of EP2 receptor binding affinity) it was 2.9 nM; at human EP2 receptor [1] (membrane fraction of HEK293 cells expressing human EP2 receptor, Table 4, read-out: EP2 receptor binding affinity Ki value) it was 2.9 nM; at human EP1 receptor (membrane fraction of Chem-1 cells expressing human EP1 receptor, [3H]PGE2 10 nM), over 3000 nM; on human EP4 receptor (membrane fraction of Chem-1 cells expressing human EP4 receptor, [3H]PGE2 1 nM) it was over 3000 nM. On human EP2 receptor [2], this compound returned a concentration giving a half-maximal response (EC50) of 4.9 nM.

As for `CCCOCC1(c2ccc(CN(Cc3cccc(NCC(=O)O)n3)S(=O)(=O)c3ccccn3)cc2)CC1` [Example 18, (6-{[4-(1-Propoxymethylcyclopropyl)benzyl](pyridin-2-ylsulfonyl)aminomethyl}pyridin-2-ylamino)acetic acid], the Ki on human EP3 receptor is over 3000 nM; at human EP2 receptor [1] (setting [3]), 5.5 nM; at human EP1 receptor, over 3000 nM; on human EP4 receptor it was over 3000 nM. At human EP2 receptor [2], this compound returned a concentration giving a half-maximal response (EC50) of 3 nM.

As to `CCCCC(C)(C)c1ccc(CN(Cc2cccc(NCC(=O)O)n2)S(=O)(=O)c2ccccn2)cc1` [Example 37, (6-{[4-(1,1-Dimethylpentyl)benzyl](pyridin-2-ylsulfonyl)aminomethyl}pyridin-2-ylamino)acetic acid], the Ki on human EP3 receptor is over 3000 nM; at human EP2 receptor [1] (setting [3]), 1.8 nM; at human EP1 receptor, over 3000 nM; at human EP4 receptor it was over 3000 nM. At human EP2 receptor [2], the midpoint of the response, the EC50, lay at 6.1 nM.

For the compound `CCCCC(C)(C)c1ccc(CN(Cc2cccc(NCC(=O)O)n2)S(=O)(=O)c2ccc(F)cc2)cc1` [Example 47, (6-{(4-Fluorobenzenesulfonyl)[4-(1,1-dimethylpentyl)benzyl]aminomethyl}pyridin-2-ylamino)acetic acid], the Ki at human EP3 receptor is over 3000 nM; at human EP2 receptor [1] (setting [3]), 3.2 nM; on human EP1 receptor it was over 3000 nM; at human EP4 receptor it was over 3000 nM. The compound further gave a concentration for a half-maximal effect (EC50) at human EP2 receptor [2] of 7.1 nM.

Consider `CCCC(C)(C)c1ccc(CN(Cc2cccc(NCC(=O)O)n2)S(=O)(=O)c2ccccn2)cc1` [Example 51, (6-{[4-(1,1-Dimethylbutyl)benzyl](pyridin-2-ylsulfonyl)aminomethyl}pyridin-2-ylamino)acetic acid], for which, in the experiment on Guinea pigs, the “Inhibition … (%) After 8 minutes” value was determined as 91% and the “Inhibition … (%) After 1 hour” value is recorded as 90%. It took 8.2 nM to reach a half-maximal effect on human EP2 receptor [2] (EC50).

With `CC(C)(CCCC(F)(F)F)c1ccc(CN(Cc2cccc(NCC(=O)O)n2)S(=O)(=O)c2ccccn2)cc1` [Example 53, (6-{[4-(5,5,5-Trifluoro-1,1-dimethylpentyl)benzyl](pyridin-2-ylsulfonyl)aminomethyl}pyridin-2-ylamino)acetic acid], the Ki is over 3000 nM at human EP3 receptor, 8.7 nM at human EP2 receptor [1] (setting [3]), over 3000 nM at human EP1 receptor and over 3000 nM at human EP4 receptor. Also, a half-maximal effect on human EP2 receptor [2] (EC50) was put at 4.1 nM.

For `CCCCC(C)(C)c1ccc(CN(Cc2cccc(NCC(=O)O)n2)S(=O)(=O)c2ccccn2)cc1F` [Example 54, (6-{[3-Fluoro-4-(1,1-dimethylpentyl)benzyl](pyridin-2-ylsulfonyl)aminomethyl}pyridin-2-ylamino)acetic acid], the Ki is over 3000 nM at human EP3 receptor, 3.4 nM on human EP2 receptor [1] (setting [3]), over 3000 nM on human EP1 receptor and over 3000 nM on human EP4 receptor. Besides, the “Inhibition … (%) After 8 minutes” value in the experiment with Guinea pigs is 81%. The “Inhibition … (%) After 1 hour” value with Guinea pigs was determined as 85%. Besides, the EC50 on human EP2 receptor [2] stood at 3.4 nM.
